The text below walks through data of patent publication US11440906B2, “Biguanide derivatives and their rearrangement products for use in the treatment of cancer” (CENTRE NATIONAL DE LA RECHERCHE SCIENTIFIQUE, priority 2017, dated 2022).

The test has as its system A375 Sensitive cells. The experiment in a line: Viability test, trypan blue exclusion, A375 Sensitive cells. Type of test: cell-based, human. The note with it: Homo sapiens, A-375; for viability at 5 µM / viability at 10 µM: viable cells as percentage of DMSO control. From the text: Different melanoma cell lines were purchased from the American Tissue Culture Collection: A375 and WM9 cells are mutated on B-Raf, CDKN2A and PTEN proteins; SKmel28 cells are mutated on B-Raf and P53 proteins; 1205Lu cells are mutated on B-Raf and PTEN proteins; G-361 cells are mutated on B-Raf and CDKN2A proteins; C8161 cells are mutated on B-Raf and K-Ras proteins; WM3912 cells are mutated on B-Raf and CDKN2A proteins; MeWo cells are mutated on P53 and CDKN2A proteins; WM3918 presents no mutations on characteristic proteins.
For trypan blue staining, […] of cells (melanoma and normal human cells) were aseptically transferred to a 1.5 mL clear Eppendorf tube and incubated for 3 min at room temperature with an equal volume of 0.4% trypan blue solution. Viable cells were counted and the results are expressed as the percentage of the value of control cells. All the experiments are performed 3 times in triplicate.
A375 Sensitive cells were treated with different concentrations of the synthesized molecules (5.0 μM or 10 μM) for different times (24 hr or 48 hr) or with DMSO (Control) for 12 or 48 hr. At the end of the stimulation, viable cells were counted using the trypan blue dye exclusion method. The results are normalized as percentages compare to the control.
A375 Sensitive cells were treated with 5 μM of CRO15 for different times (2 hr, 4 hr, 6 hr, 8 hr, 12 hr, 24 hr or 48 hr) or with 5 μM of PLX4032 (B-Raf inhibitor) for 48 hr or with DMSO (Control) for 48 hr. At the end of stimulation, viable cells were counted using the trypan blue dye exclusion method. The results are normalized as percentages compare to the control and data means±SEM of three independent experiments performed in triplicate *p<0.05; **p<0.01; ***p<0.001.
A375 Sensitive cells were treated with different concentrations of CRO15 (0.5 μM, 2.5 μM, 5.0 μM, 7.5 μM, 50 μM) for 48 hr or with 5 μM of PLX4032 (B-Raf inhibitor) for 48 hr or with DMSO (Control) for 48 hr. At the end of the stimulation, viable cells were counted using the trypan blue dye exclusion method. The results are normalized as percentages compare to the control and data means±SEM of three independent experiments performed in triplicate *p<0.05; **p<0.01; ***p<0.001.
A375 sensitive and resistant melanoma cells were treated with 5 μM of CRO15 for 48 hr or with 5 μM of PLX4032 for 48 hr or with DMSO (Control). At 48 hours, viable cells were counted using the trypan blue dye exclusion method. The results are normalized as percentages compare to the control and data means±SEM of three independent experiments performed in triplicate *p<0.05; **p<0.01; ***p<0.001.

Where [1] appears, read: 24 h, read-out: Viab A375 5 μM/ 24 h.
Setting [2] is: 48 h, read-out: Viab A375 5 μM/ 48 h.
Where [3] appears, read: 24 h, read-out: Viab A375 10 μM/ 24 h.
[4] abbreviates: 48 h, read-out: Viab A375 10 μM/ 48 h.

Molecules are shown by their SMILES. Like-named read-outs stand apart in the source and are kept apart here.

For the compound `COc1ccc(Nc2nc(N)nc(C(Cl)(Cl)Cl)n2)c(SSc2cc(OC)ccc2Nc2nc(N)nc(C(Cl)(Cl)Cl)n2)c1` [MTF 232, N2,N2′-(disulfanediylbis(4-methoxy-2,1-phenylene))bis(6-(trichloromethyl)-1,3,5-triazine-2,4-diamine)], the viability at 5 µM is, setting by setting: under setting [1], 83.3%; under setting [2], 24.9%. The viability at 10 µM is, setting by setting: under setting [3], 33.9%; under setting [4], 16.4 ± 4.9%.
For `Nc1nc(Nc2ccc(Cl)cc2SSc2cc(Cl)ccc2Nc2nc(N)nc(C(Cl)(Cl)Cl)n2)nc(C(Cl)(Cl)Cl)n1` [MTF 233, N2,N2′-(disulfanediylbis(4-chloro-2,1-phenylene))bis(6-(trichloromethyl)-1,3,5-triazine-2,4-diamine)], the viability at 5 µM under setting [1] turned out to be 13.9% and the viability at 5 µM under setting [2] stood at 8.9%. The viability at 10 µM is, setting by setting: under setting [3], 7%; under setting [4], 4.7%.
For `Nc1nc(Nc2ccc(F)cc2SSc2cc(F)ccc2Nc2nc(N)nc(C(Cl)(Cl)Cl)n2)nc(C(Cl)(Cl)Cl)n1` [MTF 234, N2,N2′-(disulfanediylbis(4-fluoro-2,1-phenylene))bis(6-(trichloromethyl)-1,3,5-triazine-2,4-diamine)], the viability at 5 µM reads like this: under setting [1], 29.6%; under setting [2], 17.4%. In addition, the viability at 10 µM turned out to be 9.6% under setting [3] and 7.8% under setting [4].
For the compound `N=C(NC(=N)c1cccc(Br)c1)Nc1nc2ccccc2s1` [MTF 242, N—(N-(benzo[d]thiazol-2-yl)carbamimidoyl)-3-bromobenzimidamide], the viability at 5 µM is 29.2% under setting [1] and 8.1% under setting [2]. Also, the viability at 10 µM by setting is: under setting [3], 13.4%; under setting [4], 2.9%.
Regarding `N=C(NC(=N)c1cccc(Cl)c1)Nc1nc2ccccc2s1` [MTF 243, N—(N-(benzo[d]thiazol-2-yl)carbamimidoyl)-3-chlorobenzimidamide], the viability at 5 µM under setting [1] turned out to be 22.1% and the viability at 5 µM under setting [2] was found to be 7%. In addition, the viability at 10 µM is, setting by setting: under setting [3], 12.1%; under setting [4], 2.7%.
The like results for `N=C(NC(=N)c1ccccc1Cl)Nc1nc2ccccc2s1` [MTF 244, N—(N-(benzo[d]thiazol-2-yl)carbamimidoyl)-2-chlorobenzimidamide] were, in that order, 81.6%, 68%, 84.9% and 68.4%.
The like results for `N=C(NC(=N)c1ccc(Cl)cc1)Nc1nc2ccccc2s1` [MTF 245, N—(N-(benzo[d]thiazol-2-yl)carbamimidoyl)-4-chlorobenzimidamide] were, in that order, 95%, 100%, 83% and 79.6%.
`Cc1ccc(C(=N)NC(=N)Nc2nc3ccccc3s2)cc1` [MTF 246, N—(N-(benzo[d]thiazol-2-yl)carbamimidoyl)-4-methylbenzimidamide]: the viability at 5 µM was 137% under setting [1] and 91% under setting [2]. Besides, the viability at 10 µM reads like this: under setting [3], 94%; under setting [4], 115%.
As for `N=C(NC(=N)c1ccc(I)cc1)Nc1nc2ccccc2s1` [MTF 247, N—(N-(benzo[d]thiazol-2-yl)carbamimidoyl)-4-iodobenzimidamide], the viability at 5 µM turned out to be 100% under setting [1] and 135% under setting [2]. In addition, the viability at 10 µM is, setting by setting: under setting [3], 122%; under setting [4], 100%.
Consider `N=C(NC(=N)c1ccccc1)Nc1nc2ccccc2s1` [MTF 248, N—(N-(benzo[d]thiazol-2-yl)carbamimidoyl)benzimidamide], for which the viability at 5 µM is, setting by setting: under setting [1], 100%; under setting [2], 100%. Moreover, the viability at 10 µM runs as follows: under setting [3], 80%; under setting [4], 138%.
In the case of `N=C(NC(=N)c1ccccc1F)Nc1nc2ccccc2s1` [MTF 249, N—(N-(benzo[d]thiazol-2-yl)carbamimidoyl)-2-fluorobenzimidamide], the viability at 5 µM came out at 25.4% under setting [1] and 10.6% under setting [2]. Further, the viability at 10 µM reads like this: under setting [3], 14.4%; under setting [4], 8.9%.
The like results for `N=C(NC(=N)c1ccccc1Br)Nc1nc2ccccc2s1` [MTF 250, N—(N-(benzo[d]thiazol-2-yl)carbamimidoyl)-2-bromobenzimidamide] were, in that order, 25.4%, 8.9%, 12% and 2.4%.
The like results for `N=C(NC(=N)c1ccccn1)Nc1nc2ccccc2s1` [MTF 251, N—(N-(benzo[d]thiazol-2-yl)carbamimidoyl)picolinimidamide] were, in that order, 48.9%, 44.7%, 45.1% and 19.5%.
The like results for `N=C(NC(=N)c1cccnc1)Nc1nc2ccccc2s1` [MTF 252, N—(N-(benzo[d]thiazol-2-yl)carbamimidoyl)nicotinimidamide] were, in that order, 8.6%, 5.2%, 12.9% and 2.6%.
Regarding `N=C(NC(=N)c1ccncc1)Nc1nc2ccccc2s1` [MTF 253, N—(N-(benzo[d]thiazol-2-yl)carbamimidoyl)isonicotinimidamide], the viability at 5 µM runs as follows: under setting [1], 27.8%; under setting [2], 6.9%. In addition, the viability at 10 µM came out at 14.9% under setting [3] and 4.1% under setting [4].
As for `COc1ccc(C(=N)NC(=N)Nc2nc3ccccc3s2)cc1` [MTF 254, N—(N-(benzo[d]thiazol-2-yl)carbamimidoyl)-4-methoxybenzimidamide], the viability at 5 µM by setting is: under setting [1], 100%; under setting [2], 100%. Further, the viability at 10 µM under setting [3] worked out at 100% and the viability at 10 µM under setting [4] is 100%.
Turning to `CC(=O)c1cccc(C(=N)NC(=N)Nc2nc3ccccc3s2)c1` [MTF 255, 3-acetyl-N—(N-(benzo[d]thiazol-2-yl)carbamimidoyl)benzimidamide], the viability at 5 µM under setting [1] came out at 26.1% and the viability at 5 µM under setting [2] turned out to be 4.7%. Besides, the viability at 10 µM was determined as 3.2% under setting [3] and 3.8% under setting [4]. The IC50 – broadly, the concentration needed to halve the response being measured – (A375, printed in the 10 μM/24 h column of Table 1, read-out: IC50 (converted)) is 2.3 µM.
For `N=C(NC(=N)c1cccc(Br)c1)Nc1nc(-c2ccccc2)cs1` [MTF 256, 3-bromo-N—(N-(4-phenylthiazol-2-yl)carbamimidoyl)benzimidamide], the viability at 5 µM runs as follows: under setting [1], 93.9%; under setting [2], 60%. Further, the viability at 10 µM stood at 66% under setting [3] and 95.7% under setting [4].
On the same counts, the results for `N=C(NC(=N)c1cccc(Br)c1)Nc1nc(-c2cccc([N+](=O)[O-])c2)cs1` [MTF 257, 3-bromo-N—(N-(4-(3-nitrophenyl)thiazol-2-yl)carbamimidoyl)benzimidamide] are 100%, 80.5%, 106% and 62%.
Consider `N=C(NC(=N)c1ccccn1)Nc1nc(-c2cccc([N+](=O)[O-])c2)cs1` [MTF 259, N—(N-(4-(3-nitrophenyl)thiazol-2-yl)carbamimidoyl)picolinimidamide], for which the viability at 5 µM is 157% under setting [1] and 95.7% under setting [2]. For the same compound, the viability at 10 µM came out at 98% under setting [3] and 96.5% under setting [4].
In the case of `N=C(NC(=N)c1cccnc1)Nc1nc(-c2cccc([N+](=O)[O-])c2)cs1` [MTF 260, N—(N-(4-(3-nitrophenyl)thiazol-2-yl)carbamimidoyl)nicotinimidamide], the viability at 5 µM under setting [1] was 57% and the viability at 5 µM under setting [2] was 32%. For the same compound, the viability at 10 µM runs as follows: under setting [3], 76.7%; under setting [4], 78%.
